Format in all cases: cell-based
Assay [1] deals with LAPC4 prostate cancer cells. The assay can be described thus: Antiproliferative effects in LAPC4 cells (CellTiter Glo). As to conditions: LAPC4 cells (AKT1 E17K allele), read-out: LAPC4 proliferation IC50. The method in brief: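 Growth inhibition is gauged by intracellular ATP content, measured with CellTiter Glo 72 h after compound addition to 1,000 seeded cells per well. IC50 derives from a Hill equation fit.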

The target of another assay is T1, AKT1 E17K (Homo sapiens, UniProt P31749, E17K).
T1 construct: expressed in transfected cells; host or cells: HEK293
The assay can be described thus: Live cell AKT1 E17K target engagement by NanoBRET competitive probe displacement. As to conditions: HEK293 cells transfected with kinase-NanoLuciferase fusion, 2 h at 37° C. The method in brief:
(§1)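 Steps: overnight transfection of HEK293 with kinase-NanoLuc plasmids; addition of compound dilutions and tracer (~EC50); 2 h incubation at 37 °C; substrate plus extracellular luciferase inhibitor; luminescence at 460 and 600 nm. IC50 values came from fitting the BRET ratio to a Hill equation.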

Another assay has as its target T2, AKT1 WT (Homo sapiens, UniProt P31749).
T2 construct: expressed in transfected cells; host or cells: HEK293
The assay can be described thus: Live cell AKT1 WT target engagement by NanoBRET competitive probe displacement. As to conditions: HEK293 cells transfected with kinase-NanoLuciferase fusion, 2 h at 37° C. The method in brief:
as §1

A further assay has as its target T3, AKT2 (Homo sapiens, UniProt P31751).
T3 construct: expressed in transfected cells; host or cells: HEK293
The assay can be described thus: Live cell AKT2 target engagement by NanoBRET competitive probe displacement. As to conditions: HEK293 cells transfected with kinase-NanoLuciferase fusion, 2 h at 37° C. The method in brief:
as §1

Read-outs that look alike come from different tables or passages of the source. Some results are limits rather than exact numbers.

T3 sequence (P31751 whole entry): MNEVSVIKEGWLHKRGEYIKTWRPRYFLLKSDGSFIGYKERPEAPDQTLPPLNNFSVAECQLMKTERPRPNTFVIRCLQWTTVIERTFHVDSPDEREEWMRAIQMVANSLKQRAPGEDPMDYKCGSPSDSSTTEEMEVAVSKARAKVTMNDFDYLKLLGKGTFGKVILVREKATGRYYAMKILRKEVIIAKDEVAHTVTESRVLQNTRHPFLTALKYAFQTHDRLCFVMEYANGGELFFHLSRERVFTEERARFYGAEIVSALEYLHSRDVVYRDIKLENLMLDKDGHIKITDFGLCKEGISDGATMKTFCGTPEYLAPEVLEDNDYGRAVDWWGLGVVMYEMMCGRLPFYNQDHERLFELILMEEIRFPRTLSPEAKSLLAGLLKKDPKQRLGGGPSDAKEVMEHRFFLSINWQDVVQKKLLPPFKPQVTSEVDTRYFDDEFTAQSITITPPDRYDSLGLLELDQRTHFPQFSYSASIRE
T2 sequence (P31749 whole entry): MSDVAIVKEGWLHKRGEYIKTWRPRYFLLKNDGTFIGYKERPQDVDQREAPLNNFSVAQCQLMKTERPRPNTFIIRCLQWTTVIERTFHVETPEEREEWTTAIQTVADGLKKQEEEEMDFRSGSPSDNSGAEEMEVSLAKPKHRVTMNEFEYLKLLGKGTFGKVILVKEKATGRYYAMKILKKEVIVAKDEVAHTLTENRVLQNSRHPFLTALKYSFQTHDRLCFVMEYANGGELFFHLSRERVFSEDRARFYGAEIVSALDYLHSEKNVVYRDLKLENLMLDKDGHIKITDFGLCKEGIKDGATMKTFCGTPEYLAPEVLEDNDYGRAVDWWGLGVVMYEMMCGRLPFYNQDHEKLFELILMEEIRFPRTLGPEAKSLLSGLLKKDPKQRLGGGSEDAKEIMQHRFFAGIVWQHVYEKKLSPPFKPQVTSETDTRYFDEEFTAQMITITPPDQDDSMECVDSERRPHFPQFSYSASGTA
T1 sequence (P31749 whole entry E17K): as the sequence (P31749 whole entry) above, with E17K counted along it

Regarding `C=CC(=O)N1CC2CC1CCC2N[C@H]1CCc2cc(-n3c(-c4cccnc4N)nc4ccc(-n5cccn5)nc43)ccc21` (stereo partly drawn) [Example 294, 1-(2-(((S)-5-(2-(2-aminopyridin-3-yl)-5-(1H-pyrazol-1-yl)-3H-imidazo[4,5-b]pyridin-3-yl)-2,3-dihydro-1H-inden-1-yl)amino)-6-azabicyclo[3.2.1]octan-6-yl)prop-2-en-1-one], the IC50 in assay [1] (Homo sapiens, LAPC4, 72 h) was 217 nM; on AKT1 E17K, 28.6 nM; at AKT1 WT, 301 nM; on AKT2, 56.7 nM.
For the molecule `C=CC(=O)N1CCC(N[C@H]2CCc3cc(-n4c(-c5cccnc5N)nc5ccc(-n6ccc(Cl)n6)nc54)ccc32)CC1` [Example 252, 1-(4-{[(1S)-5-[2-(2-aminopyridin-3-yl)-5-(3-chloropyrazol-1-yl)imidazo[4,5-b]pyridin-3-yl]-2,3-dihydro-1H-inden-1-yl]amino}piperidin-1-yl)prop-2-en-1-one], the IC50 in assay [1] (Homo sapiens, LAPC4, 72 h) was 90 nM; on AKT1 E17K, 10.4 nM; on AKT1 WT, 127 nM; at AKT2, 38.5 nM.
For `C=CC(=O)N1CCC(N[C@@H]2c3ccc(-n4c(-c5cccnc5N)nc5ccc(-n6ccc(F)n6)nc54)cc3CC2F)C[C@@H]1C` (single isomer, unassigned) [Example 273, 1-((2S,4*)-4-(((1R,2*)-5-(2-(2-aminopyridin-3-yl)-5-(3-fluoro-1H-pyrazol-1-yl)-3H-imidazo[4,5-b]pyridin-3-yl)-2-fluoro-2,3-dihydro-1H-inden-1-yl)amino)-2-methylpiperidin-1-yl)prop-2-en-1-one], the IC50 was found to be 134 nM in assay [1] (72 h), 11.5 nM on AKT1 E17K, 157 nM at AKT1 WT and 27.9 nM at AKT2.
Turning to `C=CC(=O)N1CC2(CC(N[C@H]3CCc4cc(-n5c(-c6cccnc6N)nc6ccc(-n7cccn7)nc65)ccc43)C2)C1` [Example 31, 1-(6-{[(1S)-5-[2-(2-aminopyridin-3-yl)-5-(pyrazol-1-yl)imidazo[4,5-b]pyridin-3-yl]-2,3-dihydro-1H-inden-1-yl]amino}-2-azaspiro[3.3]heptan-2-yl)prop-2-en-1-one], the IC50 in assay [1] (Homo sapiens, LAPC4, 72 h) is 30.8 nM; at AKT1 E17K, 12.6 nM; on AKT1 WT, 12.9 nM; on AKT2 it was 57.9 nM.
Taken in the same sequence, the figures for `C=CC(=O)N1CCC(N[C@H]2CCc3cc(-n4c(-c5cccnc5N)nc5c(OC)cc(-n6cccn6)nc54)ccc32)CC1` [Example 337, 1-(4-{[(1S)-5-[2-(2-aminopyridin-3-yl)-7-methoxy-5-(pyrazol-1-yl)imidazo[4,5-b]pyridin-3-yl]-2,3-dihydro-1H-inden-1-yl]amino}piperidin-1-yl)prop-2-en-1-one] were 99.5 nM, 6.33 nM, 30.3 nM and 29.4 nM.
As to `C=CC(=O)Nc1cnccc1C(=O)N[C@H]1CCc2cc(-n3c(-c4cccnc4N)nc4ccc(-n5cccn5)nc43)ccc21` [Example 41, N-[(1S)-5-[2-(2-aminopyridin-3-yl)-5-(pyrazol-1-yl)imidazo[4,5-b]pyridin-3-yl]-2,3-dihydro-1H-inden-1-yl]-3-(prop-2-enamido)pyridine-4-carboxamide], the IC50 in assay [1] (Homo sapiens, LAPC4, 72 h) was 9840 nM; on AKT1 E17K, above 1000 nM; at AKT1 WT it was 305 nM; on AKT2 it was 5060 nM.
As to `C=CC(=O)N1CCC(N[C@H]2CCc3cc(-n4c(-c5cccnc5N)nc5ccc(C6CC(F)(F)C6)nc54)ccc32)CC1` [Example 227, 1-(4-{[(1S)-5-[2-(2-aminopyridin-3-yl)-5-(3,3-difluorocyclobutyl)imidazo[4,5-b]pyridin-3-yl]-2,3-dihydro-1H-inden-1-yl]amino}piperidin-1-yl)prop-2-en-1-one], the IC50 in assay [1] (Homo sapiens, LAPC4, 72 h) is 540 nM; at AKT1 E17K, 39 nM; at AKT1 WT it was 703 nM; on AKT2, 283 nM.
In the same order, the values of `C=CC(=O)N1CCCc2cccc(C(=O)N[C@H]3CCc4cc(-n5c(-c6cccnc6N)nc6ccc(-n7cccn7)nc65)ccc43)c21` [Example 40, N-[(1S)-5-[2-(2-aminopyridin-3-yl)-5-(pyrazol-1-yl)imidazo[4,5-b]pyridin-3-yl]-2,3-dihydro-1H-inden-1-yl]-1-(prop-2-enoyl)-3,4-dihydro-2H-quinoline-8-carboxamide] are 948 nM, 94 nM, 48.1 nM and 265 nM.
`CC#CC(=O)NCc1ccccc1C(=O)N[C@H]1CCc2cc(-n3c(-c4cccnc4N)nc4ccc(-n5cccn5)nc43)ccc21` [Example 267, N-[(1S)-5-[2-(2-aminopyridin-3-yl)-5-(pyrazol-1-yl)imidazo[4,5-b]pyridin-3-yl]-2,3-dihydro-1H-inden-1-yl]-2-(but-2-ynamidomethyl)benzamide]: the IC50 was determined as 335 nM in assay [1] (Homo sapiens, LAPC4, 72 h); 5.9 nM on AKT1 E17K; 86.4 nM at AKT1 WT; 53.6 nM on AKT2.
Consider `C=CC(=O)N1CCC(N[C@H]2CCc3cc(-n4c(-c5cccnc5N)nc5ccc(-n6nccn6)nc54)ccc32)CC1` [Example 33, 1-(4-{[(1S)-5-[2-(2-aminopyridin-3-yl)-5-(1,2,3-triazol-2-yl)imidazo[4,5-b]pyridin-3-yl]-2,3-dihydro-1H-inden-1-yl]amino}piperidin-1-yl)prop-2-en-1-one], for which the IC50 was 52 nM in assay [1] (Homo sapiens, LAPC4, 72 h); 20.7 nM at AKT1 E17K; 21.2 nM at AKT1 WT; 152 nM at AKT2.
On to `C=CC(=O)N1CC(N2CCC(N[C@H]3CCc4cc(-n5c(-c6cccnc6N)nc6ccc(-n7cccn7)nc65)ccc43)CC2)C1` [Example 158, (S)-1-(3-(4-((5-(2-(2-aminopyridin-3-yl)-5-(1H-pyrazol-1-yl)-3H-imidazo[4,5-b]pyridin-3-yl)-2,3-dihydro-1H-inden-1-yl)amino)piperidin-1-yl)azetidin-1-yl)prop-2-en-1-one], for which the IC50 in assay [1] (Homo sapiens, LAPC4, 72 h) is 1090 nM; on AKT1 E17K, 358 nM; at AKT1 WT, 72.6 nM; at AKT2, 1870 nM.
As to `C=CC(=O)N1CCC(N[C@H]2CCc3cc(-n4c(-c5cccnc5N)nc5ccc(-n6cccn6)nc54)ccc32)c2ccccc21` (single isomer, unassigned) [Example 127, 1-[(4*)-4-{[(1S)-5-[2-(2-aminopyridin-3-yl)-5-(pyrazol-1-yl)imidazo[4,5-b]pyridin-3-yl]-2,3-dihydro-1H-inden-1-yl]amino}-3,4-dihydro-2H-quinolin-1-yl]prop-2-en-1-one], the IC50 in assay [1] (72 h) came out at 37.1 nM; on AKT1 E17K, 8.17 nM; at AKT1 WT, 9.06 nM; on AKT2, 36.9 nM.
With `C=CC(=O)Nc1cc(C(F)F)ccc1C(=O)N[C@H]1CCc2cc(-n3c(-c4cccnc4N)nc4ccc(-n5cccn5)nc43)ccc21` [Example 43, (S)-2-acrylamido-N-(5-(2-(2-aminopyridin-3-yl)-5-(1H-pyrazol-1-yl)-3H-imidazo[4,5-b]pyridin-3-yl)-2,3-dihydro-1H-inden-1-yl)-4-(difluoromethyl)benzamide], the IC50 in assay [1] (Homo sapiens, LAPC4, 72 h) is above 10000 nM; at AKT1 E17K, above 1000 nM; on AKT1 WT, 317 nM; on AKT2 it was above 10000 nM.
Take `C=C(F)C(=O)Nc1cn(C)nc1C(=O)N[C@H]1CCc2cc(-n3c(-c4cccnc4N)nc4ccc(-n5cccn5)nc43)ccc21` [Example 36, (S)-N-(5-(2-(2-aminopyridin-3-yl)-5-(1H-pyrazol-1-yl)-3H-imidazo[4,5-b]pyridin-3-yl)-2,3-dihydro-1H-inden-1-yl)-4-(2-fluoroacrylamido)-1-methyl-1H-pyrazole-3-carboxamide]: the IC50 in assay [1] (Homo sapiens, LAPC4, 72 h) is 533 nM; at AKT1 E17K, 179 nM; on AKT1 WT, 64.5 nM; on AKT2, 982 nM.
As to `C=CC(=O)N1[C@H](C)CC(N[C@H]2CCc3cc(-n4c(-c5cccnc5N)nc5ccc(-n6cccn6)nc54)ccc32)C[C@@H]1C` (single isomer, unassigned) [Example 88, 1-((2S,4*,6R)-4-(((R)-5-(2-(2-aminopyridin-3-yl)-5-(1H-pyrazol-1-yl)-3H-imidazo[4,5-b]pyridin-3-yl)-2,3-dihydro-1H-inden-1-yl)amino)-2,6-dimethylpiperidin-1-yl)prop-2-en-1-one], the IC50 in assay [1] (72 h) came out at 87.7 nM; at AKT1 E17K, 48.7 nM; on AKT1 WT it was 21.5 nM; on AKT2, 180 nM.
Take `C=CC(=O)N1CCC(N[C@H]2CCc3cc(-n4c(-c5cccnc5N)nc5ccc(-n6cccn6)nc54)ccc32)C(C)C1` (single isomer, unassigned) [Example 100, 1-((3*,4*)-4-(((S)-5-(2-(2-aminopyridin-3-yl)-5-(1H-pyrazol-1-yl)-3H-imidazo[4,5-b]pyridin-3-yl)-2,3-dihydro-1H-inden-1-yl)amino)-3-methylpiperidin-1-yl)prop-2-en-1-one]: the IC50 in assay [1] (72 h) is 187 nM; at AKT1 E17K, 53.6 nM; on AKT1 WT, 9.09 nM; at AKT2, 135 nM.
`C=CC(=O)N1CCC(N[C@H]2CCc3cc(-n4c(-c5cccnc5N)nc5ccc(-n6ccc(OC7CC7)n6)nc54)ccc32)CC1` [Example 314, 1-(4-{[(1S)-5-[2-(2-aminopyridin-3-yl)-5-(3-cyclopropoxypyrazol-1-yl)imidazo[4,5-b]pyridin-3-yl]-2,3-dihydro-1H-inden-1-yl]amino}piperidin-1-yl)prop-2-en-1-one]: the IC50 in assay [1] (Homo sapiens, LAPC4, 72 h) was found to be 54.9 nM; at AKT1 E17K it was 7.44 nM; at AKT1 WT, 95.1 nM; at AKT2 it was 23.8 nM.

For the origin of these results see patent publication US12570655B2, “Cysteine covalent modifiers of AKT1 and uses thereof” (Terremoto Biosciences, Inc., priority 2023, dated 2026).
